Measurements: ChEMBL document CHEMBL3217528, “Bicyclic imidazole-4-one derivatives: a new class of antagonists for the orphan G protein-coupled receptors GPR18 and GPR55” (Medchemcomm, 2014)
Activity calls are given as the source filed them. The calls are words filed in the database; no cut-off is given here.

Assays:
[1] = molecular target: T1, Cannabinoid receptor 2 (Homo sapiens, UniProt P34972); assay: Displacement of [3H]CP55,940 from human recombinant CB2 receptor expressed in HEK293 cells at 10 uM; assay type: cell-based
T1 sequence (P34972 whole entry, the tested form may be a part): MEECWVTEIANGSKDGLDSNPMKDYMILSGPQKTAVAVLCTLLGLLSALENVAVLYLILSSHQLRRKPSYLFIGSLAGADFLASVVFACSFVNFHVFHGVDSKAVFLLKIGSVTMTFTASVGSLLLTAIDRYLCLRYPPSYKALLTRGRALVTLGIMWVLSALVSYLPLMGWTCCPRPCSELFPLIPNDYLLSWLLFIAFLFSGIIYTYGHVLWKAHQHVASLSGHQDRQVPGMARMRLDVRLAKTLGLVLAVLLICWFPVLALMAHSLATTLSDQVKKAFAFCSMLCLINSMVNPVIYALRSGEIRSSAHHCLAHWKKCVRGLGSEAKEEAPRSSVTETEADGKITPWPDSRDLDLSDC

[2] = molecular target: T2, G-protein coupled receptor 55 (Homo sapiens, UniProt Q9Y2T6); assay: Agonist activity at human GPR55 expressed in CHO cells assessed as induction of LPI-induced beta-arrestin recruitment by beta-galactosidase enzyme fragment complementation method relative to LPI; assay type: cell-based; parameters: concentration or dose not given beside the values
T2 sequence (Q9Y2T6 whole entry, the tested form may be a part): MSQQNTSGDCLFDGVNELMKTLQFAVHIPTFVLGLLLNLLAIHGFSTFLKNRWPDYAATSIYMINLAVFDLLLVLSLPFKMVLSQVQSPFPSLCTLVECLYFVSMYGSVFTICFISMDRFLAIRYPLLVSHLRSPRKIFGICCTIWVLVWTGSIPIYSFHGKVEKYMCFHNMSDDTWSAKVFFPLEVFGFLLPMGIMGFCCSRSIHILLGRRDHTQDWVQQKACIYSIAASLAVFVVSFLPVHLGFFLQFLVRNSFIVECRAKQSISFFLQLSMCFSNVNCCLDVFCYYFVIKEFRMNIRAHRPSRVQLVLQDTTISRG

[3] = molecular target: T2, G-protein coupled receptor 55; assay: Antagonist activity against human GPR55 expressed in CHO cells assessed as reduction in LPI-induced beta-arrestin recruitment at 10 uM by beta-galactosidase enzyme fragment complementation method; assay type: cell-based
[4] = molecular target: T2, G-protein coupled receptor 55; assay: Antagonist activity against human GPR55 expressed in CHO cells assessed as reduction in LPI-induced beta-arrestin recruitment by beta-galactosidase enzyme fragment complementation method; assay type: cell-based
[5] = molecular target: T1, Cannabinoid receptor 2; assay: Displacement of [3H]CP55,940 from human recombinant CB2 receptor expressed in HEK293 cells; assay type: cell-based
[6] = molecular target: T3, Cannabinoid receptor 1 (Homo sapiens, UniProt P21554); assay: Displacement of [3H]CP55,940 from human recombinant CB1 receptor expressed in CHO-K1 cells; assay type: cell-based
T3 sequence (P21554 whole entry, the tested form may be a part): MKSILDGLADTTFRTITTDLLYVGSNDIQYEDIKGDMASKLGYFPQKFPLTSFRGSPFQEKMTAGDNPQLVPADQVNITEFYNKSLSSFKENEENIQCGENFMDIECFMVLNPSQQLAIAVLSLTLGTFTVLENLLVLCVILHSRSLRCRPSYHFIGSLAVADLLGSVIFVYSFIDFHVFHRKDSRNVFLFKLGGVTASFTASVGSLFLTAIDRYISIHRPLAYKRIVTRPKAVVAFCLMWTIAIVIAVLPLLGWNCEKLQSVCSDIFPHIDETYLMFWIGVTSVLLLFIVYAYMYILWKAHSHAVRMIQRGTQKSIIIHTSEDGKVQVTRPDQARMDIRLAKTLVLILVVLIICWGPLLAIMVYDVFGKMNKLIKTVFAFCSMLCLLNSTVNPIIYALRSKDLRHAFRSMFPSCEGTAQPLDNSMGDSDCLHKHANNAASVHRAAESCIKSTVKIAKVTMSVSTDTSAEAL

[7] = molecular target: T4, N-arachidonyl glycine receptor (Homo sapiens) (UniProt Q14330); assay: Agonist activity at human GPR18 expressed in CHO cells assessed as induction of beta-arrestin recruitment by beta-galactosidase enzyme fragment complementation method relative to delta9-THC; assay type: cell-based; parameters: concentration or dose not given beside the values
T4 sequence (whole entry): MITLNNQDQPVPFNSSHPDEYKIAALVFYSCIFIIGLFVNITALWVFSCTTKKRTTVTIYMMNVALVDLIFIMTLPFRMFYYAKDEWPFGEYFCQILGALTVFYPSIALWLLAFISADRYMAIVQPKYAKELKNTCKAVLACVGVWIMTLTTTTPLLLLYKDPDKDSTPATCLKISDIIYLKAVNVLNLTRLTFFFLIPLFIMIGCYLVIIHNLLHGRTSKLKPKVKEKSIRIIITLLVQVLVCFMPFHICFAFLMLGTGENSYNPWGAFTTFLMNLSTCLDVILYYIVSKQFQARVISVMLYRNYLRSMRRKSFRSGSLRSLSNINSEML

[8] = molecular target: Cannabinoid receptor 1 (Rattus norvegicus) (UniProt P20272); assay: Intrinsic activity at CB1 receptor in rat brain cortical membranes assessed as stimulation of [35S]GTPgammaS binding at 10 uM by liquid scintillation counting method relative to CP55,940; assay type: functional, cell membranes
Sequence of Cannabinoid receptor 1 (Rattus norvegicus) (P20272 whole entry): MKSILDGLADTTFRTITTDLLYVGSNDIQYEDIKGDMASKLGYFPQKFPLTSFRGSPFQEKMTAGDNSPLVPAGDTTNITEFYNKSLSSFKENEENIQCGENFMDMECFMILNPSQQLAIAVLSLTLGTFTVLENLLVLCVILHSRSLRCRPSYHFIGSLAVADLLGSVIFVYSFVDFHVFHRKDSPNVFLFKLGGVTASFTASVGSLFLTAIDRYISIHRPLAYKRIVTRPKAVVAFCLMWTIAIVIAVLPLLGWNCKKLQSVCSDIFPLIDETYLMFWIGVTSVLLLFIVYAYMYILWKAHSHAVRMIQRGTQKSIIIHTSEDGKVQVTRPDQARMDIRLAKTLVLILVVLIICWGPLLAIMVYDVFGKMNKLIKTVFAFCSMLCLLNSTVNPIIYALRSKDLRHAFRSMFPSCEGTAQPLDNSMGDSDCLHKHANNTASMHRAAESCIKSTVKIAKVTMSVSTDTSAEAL

[9] = molecular target: T3, Cannabinoid receptor 1; assay: Displacement of [3H]CP55,940 from human recombinant CB1 receptor expressed in CHO-K1 cells at 10 uM; assay type: cell-based
[10] = molecular target: T4, N-arachidonyl glycine receptor (Homo sapiens); assay: Antagonist activity against human GPR18 expressed in CHO cells assessed as reduction in delta9-THC-induced beta-arrestin recruitment at 10 uM by beta-galactosidase enzyme fragment complementation method; assay type: cell-based
[11] = molecular target: Cannabinoid receptor 1 (Rattus norvegicus, UniProt P20272); assay: Displacement of [3H]CP55,940 from CB1 receptor in rat brain cortical membranes; assay type: cell membranes
Sequence of Cannabinoid receptor 1 (Rattus norvegicus, UniProt P20272) (P20272 whole entry): as above

[12] = molecular target: T3, Cannabinoid receptor 1; assay: Intrinsic activity at human recombinant CB1 receptor expressed in HEK293 cell membranes assessed as stimulation of [35S]GTPgammaS binding at 10 uM by liquid scintillation counting method relative to CP55,940; assay type: functional
[13] = molecular target: T5, N-arachidonyl glycine receptor (Homo sapiens, UniProt Q14330); assay: Antagonist activity against human GPR18 expressed in CHO cells assessed as reduction in delta9-THC-induced beta-arrestin recruitment by beta-galactosidase enzyme fragment complementation method; assay type: cell-based
T5 sequence (Q14330 whole entry): T4 sequence (whole entry)

[14] = molecular target: T1, Cannabinoid receptor 2; assay: Agonist activity at human recombinant CB2 receptor expressed in CHO-K1 cell membranes assessed effect on forskolin-induced cAMP accumulation at 10 uM; assay type: functional, cell-based
[15] = molecular target: Cannabinoid receptor 1 (Rattus norvegicus) (UniProt P20272); assay: Displacement of [3H]CP55,940 from CB1 receptor in rat brain cortical membranes at 10 uM; assay type: cell membranes
[16] = Displacement of [3H]diazepam from GABAA receptor in rat brain cortical membranes; assay type: cell membranes

Row | Structure (SMILES) | inhibition [1] | Activity [2] | inhibition [3] | IC50 [4] | Ki [5] | Ki [6] | Activity [7] | Intrinsic activity [8] | inhibition [9] | inhibition [10] | Ki [11] | Intrinsic activity [12] | IC50 [13] | Activity [14] | inhibition [15] | Ki [16]
1 | O=C1N2CCCSC2=NC1(c1ccccc1)c1ccccc1 | 5% | 19% | 23% | > 10 µM | > 10 µM | > 10 µM | 14% | -21% | 25% | 0% | 7.68 µM | -31% | > 10 µM |  |  | 
2 | O=C1/C(=C/c2cccc(Oc3ccccc3)c2)N=C2SCCCCN12 | 21% | 5% | 33% | > 10 µM | > 10 µM | 1.6 µM | 1% | -21% |  |  | 3.63 µM | -37% | 14.1 µM |  |  | 
3 | O=C1/C(=C/c2cccc(Oc3ccccc3)c2)N=C2SCCCN12 | 9% | 13% | 33% | > 10 µM | > 10 µM | > 10 µM | 5% | -15% | 29% | 54% | 6.58 µM | -49% | 10 µM |  |  | 
4 | O=C1/C(=C/c2cccc(OCc3ccccc3Cl)c2)N=C2SCCCCN12 |  | 7% | 43% | ≥ 10 µM | 0.98 µM | 2.29 µM | 0% |  |  |  | > 10 µM |  | 6.48 µM | inactive | 37% | 
5 | O=C1/C(=C/c2cccc(OCc3ccccc3)c2)N=C2SCCCCN12 |  | 4% | 21% | > 10 µM | 1.81 µM | 2.13 µM | 7% | -26% |  | 49% | 2.01 µM | -35% | 10 µM | inactive |  | 
6 | O=C1/C(=C/c2cccc(OCc3ccccc3)c2)N=C2SCCCN12 |  | 37% | 0% | > 10 µM | 1.11 µM | > 10 µM | 0% | -9% | 25% |  | 4.22 µM | -33% | 7.22 µM | inactive |  | 
7 | O=C(Oc1cccc(/C=C2\N=C3SCCCN3C2=O)c1)c1ccccc1 | 47% | 49% | 7% | > 10 µM | ≥ 10 µM | > 10 µM | 0% |  | 2% |  | > 10 µM |  | 6.35 µM |  | 13% | > 10 µM
8 | O=C1N=C2SCCCCN2C1(c1ccccc1)c1ccccc1 | 10% | 10% | 32% | > 10 µM | > 10 µM | > 10 µM | 11% | -19% | 34% | 0% | 21.3 µM | -48% | > 10 µM |  |  | 
9 | O=C1N=C2SCCN2C1(c1ccccc1)c1ccccc1 | 6% | 50% | 31% | > 10 µM | > 10 µM | > 10 µM | 21% |  | 30% | 0% | > 10 µM |  | > 10 µM |  | 13% | 
10 | C/C(=C1/N=C2SCCCCN2C1=O)c1ccccc1 | 17% | 1% | 25% | > 10 µM | > 10 µM | > 10 µM | 14% |  | 10% | 4% | > 10 µM |  | > 10 µM |  | 3% | 
11 | O=C1/C(=C/C=C/c2ccccc2)N=C2SCCCN12 | 37% | 29% | 27% | > 10 µM | > 10 µM | > 10 µM | 7% |  | 16% | 0% | > 10 µM |  | > 10 µM |  | 18% | 
